Experimental data reported in the NIST ThermoML archive (doi:10.1016/j.jct.2015.08.023).
“And” between values parts separate entries of the source, which are not always exact repeats. Equal entries are not always repeated. ± gives the expanded uncertainty stated by the source.

Conditions: Liquid, Closed cell (Static) method

SMILES: CN(C)CCCN [N,N-dimethyl-1,3-propanediamine]
- vapor or sublimation pressure (273.04 K): 0.183 ± 0.011 kPa
- vapor or sublimation pressure (283.06 K): 0.381 ± 0.023 kPa
- vapor or sublimation pressure (283.15 K): 0.3844 ± 0.024 kPa
- vapor or sublimation pressure (293.13 K): 0.749 ± 0.016 kPa
- vapor or sublimation pressure (293.15 K): 0.7536 ± 0.02 kPa
- vapor or sublimation pressure (303.15 K): 1.397 ± 0.02 kPa
- vapor or sublimation pressure (303.16 K): 1.396 ± 0.013 kPa
- vapor or sublimation pressure (313.15 K): 2.464 ± 0.027 kPa
- vapor or sublimation pressure (313.21 K): 2.478 ± 0.019 kPa
- vapor or sublimation pressure (323.15 K): 4.162 ± 0.038 kPa
- vapor or sublimation pressure (323.27 K): 4.186 ± 0.03 kPa
- vapor or sublimation pressure (333.15 K): 6.763 ± 0.056 kPa
- vapor or sublimation pressure (333.32 K): 6.828 ± 0.047 kPa
- vapor or sublimation pressure (343.15 K): 10.61 ± 0.083 kPa
- vapor or sublimation pressure (343.37 K): 10.73 ± 0.071 kPa and 10.72 ± 0.071 kPa
- vapor or sublimation pressure (353.15 K): 16.15 ± 0.12 kPa
- vapor or sublimation pressure (353.41 K): 16.31 ± 0.11 kPa
- vapor or sublimation pressure (363.15 K): 23.9 ± 0.17 kPa
- vapor or sublimation pressure (363.44 K): 24.1 ± 0.15 kPa

SMILES: CCN(CC)CCCN [N,N-diethylpropane-1,3-diamine]
- vapor or sublimation pressure (263.16 K): 0.014 ± 0.001 kPa
- vapor or sublimation pressure (273.05 K): 0.034 ± 0.002 kPa
- vapor or sublimation pressure (273.15 K): 0.0338 ± 0.0025 kPa
- vapor or sublimation pressure (283.15 K): 0.0768 ± 0.0054 kPa
- vapor or sublimation pressure (283.27 K): 0.077 ± 0.005 kPa
- vapor or sublimation pressure (293.15 K): 0.1631 ± 0.011 kPa
- vapor or sublimation pressure (293.22 K): 0.163 ± 0.01 kPa
- vapor or sublimation pressure (303.14 K): 0.326 ± 0.02 kPa
- vapor or sublimation pressure (303.15 K): 0.3257 ± 0.021 kPa
- vapor or sublimation pressure (303.16 K): 0.325 ± 0.02 kPa
- vapor or sublimation pressure (313.15 K): 0.6164 ± 0.016 kPa
- vapor or sublimation pressure (313.16 K): 0.616 ± 0.014 kPa
- vapor or sublimation pressure (313.18 K): 0.616 ± 0.014 kPa
- vapor or sublimation pressure (323.15 K): 1.112 ± 0.029 kPa
- vapor or sublimation pressure (323.16 K): 1.114 ± 0.024 kPa and 1.112 ± 0.024 kPa
- vapor or sublimation pressure (333.15 K): 1.922 ± 0.023 kPa
- vapor or sublimation pressure (333.18 K): 1.94 ± 0.016 kPa
- vapor or sublimation pressure (343.15 K): 3.199 ± 0.031 kPa
- vapor or sublimation pressure (343.21 K): 3.234 ± 0.024 kPa
- vapor or sublimation pressure (353.15 K): 5.143 ± 0.044 kPa
- vapor or sublimation pressure (353.19 K): 5.161 ± 0.036 kPa and 5.162 ± 0.036 kPa
- vapor or sublimation pressure (363.15 K): 8.017 ± 0.064 kPa
- vapor or sublimation pressure (363.25 K): 7.965 ± 0.053 kPa

SMILES: CNCCCN [N-methyl-1,3-diaminopropane]
- vapor or sublimation pressure (273 K): 0.089 ± 0.006 kPa
- vapor or sublimation pressure (273.15 K): 0.089 ± 0.0062 kPa
- vapor or sublimation pressure (283.15 K): 0.204 ± 0.013 kPa
- vapor or sublimation pressure (283.37 K): 0.205 ± 0.013 kPa
- vapor or sublimation pressure (293.15 K): 0.4319 ± 0.027 kPa
- vapor or sublimation pressure (293.47 K): 0.431 ± 0.026 kPa
- vapor or sublimation pressure (303.11 K): 0.861 ± 0.019 kPa
- vapor or sublimation pressure (303.15 K): 0.8539 ± 0.022 kPa
- vapor or sublimation pressure (313.15 K): 1.591 ± 0.022 kPa
- vapor or sublimation pressure (313.18 K): 1.607 ± 0.014 kPa
- vapor or sublimation pressure (323.15 K): 2.814 ± 0.029 kPa
- vapor or sublimation pressure (323.26 K): 2.83 ± 0.021 kPa and 2.828 ± 0.021 kPa
- vapor or sublimation pressure (333.15 K): 4.755 ± 0.042 kPa
- vapor or sublimation pressure (333.23 K): 4.764 ± 0.034 kPa
- vapor or sublimation pressure (333.25 K): 4.764 ± 0.034 kPa
- vapor or sublimation pressure (343.15 K): 7.716 ± 0.062 kPa
- vapor or sublimation pressure (343.26 K): 7.745 ± 0.053 kPa
- vapor or sublimation pressure (343.28 K): 7.742 ± 0.053 kPa
- vapor or sublimation pressure (343.3 K): 7.74 ± 0.053 kPa
- vapor or sublimation pressure (352.54 K): 11.85 ± 0.078 kPa
- vapor or sublimation pressure (353.15 K): 12.08 ± 0.093 kPa
- vapor or sublimation pressure (353.24 K): 12.14 ± 0.079 kPa
- vapor or sublimation pressure (362.82 K): 18.1 ± 0.12 kPa
- vapor or sublimation pressure (362.84 K): 18.11 ± 0.12 kPa
- vapor or sublimation pressure (363.15 K): 18.31 ± 0.14 kPa
- vapor or sublimation pressure (372.74 K): 26.61 ± 0.17 kPa
- vapor or sublimation pressure (372.76 K): 26.61 ± 0.17 kPa
- vapor or sublimation pressure (382.84 K): 38.34 ± 0.25 kPa
- vapor or sublimation pressure (382.87 K): 38.35 ± 0.25 kPa
- vapor or sublimation pressure (392.92 K): 53.96 ± 0.35 kPa
- vapor or sublimation pressure (392.95 K): 53.96 ± 0.35 kPa
- vapor or sublimation pressure (402.59 K): 73.4 ± 0.47 kPa
- vapor or sublimation pressure (402.61 K): 73.41 ± 0.47 kPa
- vapor or sublimation pressure (422.46 K): 129.8 ± 0.82 kPa and 129.79 ± 0.82 kPa
- vapor or sublimation pressure (422.51 K): 129.84 ± 0.82 kPa
- vapor or sublimation pressure (432.4 K): 169.97 ± 1.1 kPa and 170.02 ± 1.1 kPa
